Laboratory results reported in patent US6603023B2 (priority 1996, dated 2003).
Where two headings read alike, the source gives them in different places. Marks after values point to notes of the source that are not given here. Starred links: 1 amine or outer side, 2 acyl side, 3 side chain; linkers in the order of their positions; H or OH if unused. Positions of bridges follow the written chain, without caps; N, C: chain ends. Non-standard residues stand in square brackets, D forms with d. Residues, ends and D or L forms follow the SMILES beside them. Chains are numbered I, II in the order given. Actinocin(9to1) = Cc1c2oc3c(C)ccc(C(=O)[*:1])c3nc-2c(C(=O)[*:2])c(N)c1=O; NMeV = CN[C@H](C(=O)O)C(C)C; Sar = CNCC(=O)O

Experiments:
[1] = system: CCRF-CEM human T-cell acute lymphoblastic leukemia cell line; assay: XTT cytotoxicity (cell growth inhibition), CCRF-CEM
Summary of the method: (§1)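 Leukemia cells (CCRF-CEM, P388/0 and drug-resistant sublines kept under selecting agent) grew in RPMI-1640 with 10% FBS at 37 °C, 5% CO2, seeded at 5×10^4 cells/mL. After 72 h drug exposure, viability was read by XTT with 0.025 mM PMS-XTT, 4 h at 37 °C, absorbance 450/630 nm.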

[2] = system: CCRF-CEM/Taxol®; assay: cells; format: cell-based, human; conditions: for IC50: XTT, 72 h, read-out: IC50
Summary of the method: as §1

[3] = system: CCRF-CEM/VBL100; assay: cells; format: cell-based, human; conditions: for (B)/(A) IC50 ratio: CCRF-CEM/VBL100 vs CCRF-CEM
Summary of the method: as §1

[4] = system: CCRF-CEM/VM1; assay: cells; format: cell-based, human; conditions: for (D)/(A) IC50 ratio: CCRF-CEM/VM1 vs CCRF-CEM
Summary of the method: as §1

[5] = system: DC-3F hamster lung fibroblast cell line; assay: SRB cytotoxicity, DC-3F; format: cell-based; conditions: read-out: IC50
Protocol: (§2) The DC-3F hamster lung fibroblast cell line and its actinomycin D-selected sublines (DC-3F/ADII and DC-3F/ADX) were obtained from the Memorial Sloan-Kettering Cancer Center (MSKCC).
(§3) The drug-resistant cell lines were continuously cultured in the presence of the selecting agent, AD, DX, VBL or VM to maintain the drug resistant phenotypes. […] All cells were cultured in RPMI 1640-10% FBS at 37° C. 5% CO2 (see below).
(§4) The cytotoxicity of the drug toward the monolayer cell cultures (such as DC-3F, MCF-7, SK-N-As and sublines) was determined in 96-well microtiter plates by the SRB method as described by Skehan and co-workers (Skehan, P., et al., J. Natl. Cancer Inst. 1990, 82, 1107-1112) for measuring the cellular protein content. Cultures were fixed with trichloroacetic acid and then stained for 30 min with 0.4% suforhodamine B dissolved in 1% acetic acid. Unbound dye was removed by acetic acid washes, and the protein-bound dye was extracted with an unbuffered Tris base (tris(hydroxy-methyl)aminomethane) for determination of absorbance at 570 nm in a 96-well microtiter plate reader. The experiments were carried out in duplicate. Each run entailed six to seven concentrations of the tested drugs. Data were analyzed with the median-effect plot (Chou, T.-C. & Talalay, P. T. (1984) Adv. Enzyme Regul. 22, 27-55) using a previously described computer program (Chou, J., & Chou T.-C. 1987, Dose-effect analysis with microcomputers: Quantitation of ED50, synergism, antagonism, low-dose risk, reception-ligand binding and enzyme kinetics, IBM-PC software and manual, Biosoft, Cambridge, U.K.).

[6] = system: DC-3F/ADII; assay: SRB cytotoxicity, DC-3F/ADII; format: cell-based, hamster; conditions: Table 3; read-out: IC50
Protocol: as §2, §3, §4
(§5) Concerning Table 3, experiments were carried out using the cell lines DC-3F (parent hamster lung cells), DC-3F/ADII (moderate multidrug-resistant (MDR) cells) and DC-3F/ADX (very strong MDR cells).

[7] = system: DC-3F/ADX; assay: cells; format: cell-based, hamster; conditions: for folds of resistance (IC50 ratio vs parent cell line): DC-3F/ADX vs DC-3F; for IC50: read-out: IC50
Protocol: as §2, §3, §4, §5

[8] = system: murine leukemic P388/0; assay: XTT cytotoxicity, P388/0; format: cell-based; conditions: Table 1C; XTT, 72 h; read-out: IC50
Protocol: as §2, §3
(§6) The cells were cultured at an initial density of 5×10^4 cells/mL. They were maintained in a 5% CO2-humidified atmosphere at 37° C. in RPMI-1640 medium (GIBCO-BRL, Gaithersburg, Md.) containing penicillin (100 U/mL), streptomycin ([…]) (GIBCO-BRL) and 10% heat inactivate fetal bovine serum. Culture for cell suspension (such as for CCRF-CEM, P388 and sublines), were performed by the XTT-microculture tetrazonium method (Scudiero, D. A. et al., Cancer Res. 1988, 48, 4827-4833) in duplicate in 96-well microtiter plates.
(§7) 2′,3′-Bis(methoxy-4-nitro-5-sufophenyl)-5-[(phenylamino)carbonyl]2H-tetrazolium hyudroxide (XTT) was prepared at 1 mg/mL in prewarmed (37° C.) medium without serum. Phenazine methosulfate (PMS) and fresh XTT were mixed together to obtain 0.025 mM PMS-XTT solution (25 μL of the stock 5 mM PMS was added per 5 mL of 1 mg/mL XTT). Following a 72 h incubation, 50 μL of the assay aliquots were added to each well of the cell culture. After incubation at 37° C. for 4 h, absorbance at 450 nm and 630 nm was measured with a microplate reader (EL340, Bio-Tek Instruments, Inc., Winooski, Vt.).

[9] = system: P388/Adr; assay: cells; format: cell-based, murine; conditions: Table 1C; for folds of resistance (IC50 ratio vs parent cell line): P388/Adr vs P388/O; for IC50: XTT, 72 h, read-out: IC50
Protocol: as §3, §6, §7

[10] = system: human neuroblastoma SK-N-As; assay: SRB cytotoxicity, SK-N-As; format: cell-based; conditions: Table 1C; SRB, 72 h; read-out: IC50
Protocol: as §2, §3, §4

[11] = system: SK-N-FI; assay: cells; format: cell-based, human; conditions: Table 1C; for folds of resistance (IC50 ratio vs parent cell line): SK-N-FI vs SK-N-As; for IC50: SRB, 72 h, read-out: IC50
Protocol: as §3, §4

[12] = system: MCF-7; assay: SRB cytotoxicity, MCF-7; format: cell-based, human; conditions: Table 1C; SRB, 72 h; read-out: IC50
Protocol: as §4

[13] = system: MCF-7/Adr; assay: cells; format: cell-based, human; conditions: Table 1C; for folds of resistance (IC50 ratio vs parent cell line): MCF-7/Adr vs MCF-7; for IC50: SRB, 72 h, read-out: IC50
Protocol: Cultures were fixed with trichloroacetic acid and then stained for 30 min with 0.4% suforhodamine B dissolved in 1% acetic acid. Unbound dye was removed by acetic acid washes, and the protein-bound dye was extracted with an unbuffered Tris base (tris(hydroxy-methyl)aminomethane) for determination of absorbance at 570 nm in a 96-well microtiter plate reader. The experiments were carried out in duplicate. Each run entailed six to seven concentrations of the tested drugs.

[14] = Table 1A, XTT, 72 h, read-out: IC50
[15] = Table 6, single determinations, read-out: IC50

Structure (SMILES): C/C(=C\c1csc(C)n1)[C@@H]1C/C=C\CCC[C@H](C)[C@H](O)[C@@H](C)C(=O)C(C)(C)[C@@H](O)CC(=O)O1 [Desoxyepothilone A, desoxyepothilone A]
- IC50 [1]: 22 nM
- IC50 ([1]; Table 1, XTT): 22 nM
- IC50 ([1]; Table 1A, XTT, 72 h): 22 nM
- IC50 ([1]; Table 2): 2 nM
- IC50 ([1]; Table 6, single determinations): 22 nM
- IC50 ([1]; Table 7, CEM): 22 nM
- IC50 ([1]; read-out: IC50 (A), Table 2A, parent cell line): 22 nM
- (C)/(A) IC50 ratio ([2]; Table 1A, CCRF-CEM/Taxol vs CCRF-CEM): 0.7
- IC50 ([2]; Table 1A): 15 nM
- IC50 ([3]; Table 1, XTT, read-out: IC50): 12 nM
- (B)/(A) IC50 ratio ([3]; Table 1A): 0.55
- IC50 [3, 14]: 12 nM
- IC50 ([3]; Table 2, CCRF-CEM/VLB, read-out: IC50): 12 nM
- (B)/(A) ratio (fold resistance >1, collateral sensitivity <1) ([3]; Table 2A): (0.55)^b
- IC50 ([3]; Table 2A, MDR cell line, read-out: IC50 (B)): 12 nM
- IC50 [3, 15]: 12 nM
- IC50 ([3]; Table 7, CEM/VBL, read-out: IC50): 12 nM
- IC50 ([3]; read-out: IC50): 12 nM
- IC50 ([4]; Table 1, XTT, read-out: IC50): 13 nM
- (D)/(A) IC50 ratio ([4]; Table 1A): 0.59
- IC50 [4, 14]: 13 nM
- IC50 ([4]; Table 2, CCR-CEM/VM-1, read-out: IC50): 13 nM
- (C)/(A) ratio (fold resistance >1, collateral sensitivity <1) ([4]; Table 2A): (0.59)^b
- IC50 ([4]; Table 2A, Topo II gene mutated cell line, read-out: IC50 (C)): 13 nM
- IC50 [4, 15]: 13 nM
- IC50 ([5]; Table 1C, SRB, 72 h): 11 nM
- IC50 ([5]; Table 3): 10.6 nM
- IC50 [6]: 19.8 nM
- folds of resistance (IC50 ratio vs parent cell line) ([7]; Table 1C): (3.9x)
- IC50 ([7]; Table 1C, SRB, 72 h): 42 nM
- IC50 ([7]; Table 3): 42 nM
- IC50 [8]: 21.3 nM
- folds of resistance (IC50 ratio vs parent cell line) [9]: (0.59x)
- IC50 [9]: 12.5 nM
- IC50 [10]: 73 nM
- folds of resistance (IC50 ratio vs parent cell line) [11]: (3.1x)
- IC50 [11]: 223 nM
- IC50 [12]: 32 nM
- folds of resistance (IC50 ratio vs parent cell line) [13]: (4.5x)
- IC50 [13]: 144 nM

Structure (SMILES): Cc1c2oc3c(C)ccc(C(=O)N[C@@H]4C(=O)N[C@H](C(C)C)C(=O)N5CCC[C@H]5C(=O)N(C)CC(=O)N(C)[C@@H](C(C)C)C(=O)O[C@@H]4C)c3nc-2c(C(=O)N[C@@H]2C(=O)N[C@H](C(C)C)C(=O)N3CCC[C@H]3C(=O)N(C)CC(=O)N(C)[C@@H](C(C)C)C(=O)O[C@@H]2C)c(N)c1=O [Actinomycin D, actinomycin D] (I: T[dV]P[Sar][NMeV] / II: T[dV]P[Sar][NMeV]; ester I:1-I:C, II:1-II:C; linker I:N-II:N via Actinocin(9to1))
- IC50 ([1]; Table 1A, XTT, 72 h): 0.35 nM
- (C)/(A) IC50 ratio [2]: 3.7
- IC50 ([2]; Table 1A): 1.3 nM
- (B)/(A) IC50 ratio ([3]; Table 1A): 109
- IC50 [3, 14]: 38 nM
- (D)/(A) IC50 ratio ([4]; Table 1A): 0.8
- IC50 [4, 14]: 0.27 nM
- IC50 ([5]; Table 1C, SRB, 72 h): 0.44 nM
- IC50 ([5]; Table 3): 0.058 nM
- IC50 ([5]; Table 3, value in parentheses): 0.0582 nM
- IC50 [6]: 8.2 nM
- fold resistance vs parent DC-3F ([7]; DC-3F/ADX cells, listed as AD): 13,000 fold
- folds of resistance (IC50 ratio vs parent cell line) ([7]; Table 1C): (13000x)
- IC50 ([7]; Table 1C, SRB, 72 h): 572 nM
- IC50 ([7]; Table 3): 486 nM
- IC50 [8]: 0.15 nM
- folds of resistance (IC50 ratio vs parent cell line) [9]: (8x)
- IC50 [9]: 1.2 nM
- IC50 [10]: 0.85 nM
- folds of resistance (IC50 ratio vs parent cell line) [11]: (14x)
- IC50 [11]: 11.9 nM
- IC50 [12]: 0.68 nM
- folds of resistance (IC50 ratio vs parent cell line) [13]: (2.5x)
- IC50 [13]: 1.67 nM
